Reference: patent US20210386367A1, “DEVICES AND SYSTEMS FOR GASTROINTESTINAL MICROBIOME DETECTION AND MANIPULATION” (Progenity, Inc., priority 2018, published 2021)
≈ marks a conversion by molar mass, not a printed value. Like-named read-outs stand apart in the source and are kept apart here.

Assays:
[1] = system: E. coli (ATCC 25922, ATCC 35218, MMX 1312); assay: Agar dilution MIC (spontaneous mutation study; strain in conditions); assay type: cell-based, Escherichia coli
[2] = system: Veillonella spp. clinical isolates; assay: MIC distribution against clinical isolates; assay type: cell-based; conditions: 30 Veillonella spp. isolates
Excerpt: (n=19 V. parvula, n=9 Veillonella spp., n=1 Veillonella dispr., n=1 V. atypica) clinical isolates (μg/mL).
As used herein, “minimum inhibitory concentration” or “MIC” refers to the lowest concentration of an antimicrobial agent, for example, an antimicrobial agent as described herein, required to inhibit the growth of an organism. […] “MIC90” represents the MIC value at which ≥90% of the strains within a test population are inhibited; the 90th percentile.
Many susceptibility testing methods are known in the art and can be used as described herein (see, e.g., Jorgensen and Ferraro (2009) Clinical Infectious Diseases 49:1749-1755; and Maurer et al. (2017) Infectious Disease Reports 9:6839; the entire contents of each of the foregoing are incorporated herein by reference). For example, antimicrobial susceptibility can be determined using conventional culture based methods such as the broth or agar dilution test. In these dilution tests, the bacterial isolate of interest is inoculated onto different media that include serial dilutions of an antimicrobial agent, and incubated under appropriate conditions (e.g., overnight at 37° C.) to allow for growth to occur. Following the incubation period, the media is examined to determine bacterial growth. The lowest concentration of antibiotic that prevents growth represents the minimal inhibitory concentration (MIC). Broth dilution tests can be miniaturized and mechanized allowing for reproducibility and high throughput.

[3] = system: Bacteroides spp. spontaneous mutants; assay: Broth microdilution MIC of spontaneous mutants; assay type: cell-based
Procedure, shortened: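 Isolates from drug selection plates were subcultured on agar containing drug at the selection concentration and identified by MALDI, then MIC was determined by CLSI broth microdilution (M100-S28) with serial two-fold dilutions. Plates were pre-reduced 1 h in an anaerobic chamber; final inoculum ~1×10^6 CFU/mL.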

[4] = system: E. coli ATCC 35218 (TEM-1 β-lactamase producer); assay: Broth microdilution MIC (time-kill study); assay type: cell-based, Escherichia coli
Clostridium spp. = assay: Agar dilution MIC, 10 clinical isolates; assay type: cell-based
[5] = 10 Clostridium spp. clinical isolates

CO[C@H]1/C=C/O[C@@]2(C)Oc3c(C)c(O)c4c(O)c(c5c(nc6cc(C)ccn65)c4c3C2=O)NC(=O)/C(C)=C\C=C\[C@H](C)[C@H](O)[C@@H](C)[C@@H](O)[C@@H](C)[C@H](OC(C)=O)[C@@H]1C [rifaximin]
Agar MIC ([1]; E. coli ATCC 25922): >4 µg/mL | Agar MIC ([1]; E. coli ATCC 35218): >4 µg/mL | Agar MIC ([1]; E. coli MMX 1312): 4 µg/mL | MIC values (agar dilution) ([1]; over evaluated E. coli isolates (range stated jointly with other groups)): ≥ 4 µg/mL | Cumulative percentage of isolates inhibited at MIC ([2]; MIC 1 μg/mL): 10.0% | Number of test isolates at MIC ([2]; MIC 1 μg/mL): 1 | Cumulative percentage of isolates inhibited at MIC ([2]; MIC 8 μg/mL): 93.3% | Number of test isolates at MIC ([2]; MIC 8 μg/mL): 7 | MIC ([3]; B. fragilis ATCC 25285, selected on rifaximin 4X MIC, Colony A): >64 µg/mL | MIC ([3]; B. fragilis ATCC 25285, selected on rifaximin 4X MIC, Colony B): 64 µg/mL | MIC ([3]; B. fragilis ATCC 25285, selected on rifaximin 8X MIC, Colony A): >64 µg/mL | MIC ([3]; B. fragilis ATCC 25285, selected on rifaximin 8X MIC, Colony B): >64 µg/mL | MIC ([3]; B. fragilis ATCC 25285 Parent): 0.12 µg/mL | MIC ([3]; B. ovatus MMX 3503, selected on rifaximin 4X MIC, Colony A): >64 µg/mL | MIC ([3]; B. ovatus MMX 3503, selected on rifaximin 4X MIC, Colony B): >64 µg/mL | MIC ([3]; B. ovatus MMX 3503, selected on rifaximin 8X MIC, Colony A): >64 µg/mL | MIC ([3]; B. ovatus MMX 3503, selected on rifaximin 8X MIC, Colony B): >64 µg/mL | MIC ([3]; B. ovatus MMX 3503 Parent): 0.25 µg/mL | MIC ([3]; B. vulgatus ATCC 8482, selected on ceftriaxone 4X MIC, Colony A): 0.06 µg/mL | MIC ([3]; B. vulgatus ATCC 8482, selected on ceftriaxone 4X MIC, Colony B): 0.12 µg/mL | MIC ([3]; B. vulgatus ATCC 8482, selected on rifaximin 4X MIC, Colony A): 32 µg/mL | MIC ([3]; B. vulgatus ATCC 8482, selected on rifaximin 4X MIC, Colony B): 64 µg/mL | MIC ([3]; B. vulgatus ATCC 8482, selected on rifaximin 8X MIC, Colony A): >64 µg/mL | MIC ([3]; B. vulgatus ATCC 8482, selected on rifaximin 8X MIC, Colony B): >64 µg/mL | MIC ([3]; B. vulgatus ATCC 8482 Parent (Table 50)): 0.06 µg/mL | MIC ([3]; B. vulgatus ATCC 8482 Parent (Table 54)): 0.06 µg/mL | broth microdilution MIC of selected colonies relative to parent strain ([3]; colonies selected at 4× and 8× the MIC): several-fold higher | MIC ([4]; E. coli ATCC 35218): 4 µg/mL (≈ 5.09 µM) | MIC ([4]; broth microdilution): 4 µg/mL (≈ 5.09 µM) | MIC50 (Clostridium spp.): > 64 µg/mL | MIC90 (Clostridium spp.): > 64 µg/mL | MIC50 (Clostridium spp.; [5]): >64 µg/mL | MIC90 (Clostridium spp.; [5]): >64 µg/mL | Mode (Clostridium spp.; modal MIC, 10 Clostridium spp. clinical isolates): >64 µg/mL
